According to patent publication US20230399341A1, “7-PHENYL SUBSTITUTED 2-AMINOQUINAZOLINE INHIBITORS OF HPK1” (MERCK SHARP & DOHME LLC, priority 2020, published 2023):

Target: T1, Human HPK1, catalytic domain (Homo sapiens, UniProt Q92918)
T1 sequence (Q92918 1-346): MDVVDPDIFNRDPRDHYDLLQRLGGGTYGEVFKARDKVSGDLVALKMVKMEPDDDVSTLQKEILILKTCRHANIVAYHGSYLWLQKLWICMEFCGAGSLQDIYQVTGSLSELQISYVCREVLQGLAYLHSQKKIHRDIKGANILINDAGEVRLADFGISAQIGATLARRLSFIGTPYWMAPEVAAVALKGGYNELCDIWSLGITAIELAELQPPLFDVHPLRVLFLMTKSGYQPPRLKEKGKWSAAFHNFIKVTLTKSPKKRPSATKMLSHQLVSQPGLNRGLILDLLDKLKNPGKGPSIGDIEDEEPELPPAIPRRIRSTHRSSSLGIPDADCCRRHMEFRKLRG
Test: HPK1-SLP76 TR-FRET Assay
Format: biochemical
Details: 75 pM HPK1, ATP 10 uM, SLP76 10 nM, 30 min pre-incubation, 60 min reaction

Row | Structure (SMILES) | IC50 [nM]
1 | CNC(=O)c1ccc(-c2ccc3cnc(Nc4cc5c(cc4OC)CCN(C)C5)nc3c2)cn1 [Compound 1-21, 5-{2-[(6-methoxy-2-methyl-1,2,3,4-tetrahydroisoquinolin-7-yl)amino]quinazolin-7-yl}-N-methylpyridine-2-carboxamide] | 294
2 | COc1cc2c(cc1Nc1ncc3ccc(-c4ccc5c(c4)CCC(=O)N5)cc3n1)CNCC2 [Compound 1-88, 6-{2-[(6-methoxy-1,2,3,4-tetrahydroisoquinolin-7-yl)amino]quinazolin-7-yl}-3,4-dihydroquinolin-2(1H)-one] | 96.9
3 | COc1cc2c(cc1Nc1ncc3ccc(-c4ccc(C(F)(F)C(N)=O)nc4)cc3n1)CN(C)CC2 [Compound 1-12, 2,2-difluoro-2-(5-{2-[(6-methoxy-2-methyl-1,2,3,4-tetrahydroisoquinolin-7-yl)amino]quinazolin-7-yl}pyridin-2-yl)acetamide] | 341
4 | COc1cc2c(cc1Nc1ncc3ccc(-c4ccc5c(c4)CCN5)cc3n1)CNCC2 [Compound 1-87, 7-(2,3-dihydro-1H-indol-5-yl)-N-(6-methoxy-1,2,3,4-tetrahydroisoquinolin-7-yl)quinazolin-2-amine] | 49.2
5 | COc1cc2c(cc1Nc1ncc3ccc(-c4cccc(C(N)=O)c4)cc3n1)CN(C)CC2 [Compound 1-101, 3-{2-[(6-methoxy-2-methyl-1,2,3,4-tetrahydroisoquinolin-7-yl)amino]quinazolin-7-yl}benzamide] | 130
6 | COc1cc2c(cc1Nc1ncc3ccc(-c4ccc(-n5cccn5)nc4)cc3n1)CN(C)CC2 [Compound 1-107, N-(6-methoxy-2-methyl-1,2,3,4-tetrahydroisoquinolin-7-yl)-7-[6-(1H-pyrazol-1-yl)pyridin-3-yl]quinazolin-2-amine] | 488
7 | COc1cc2c(cc1Nc1ncc3ccc(-c4cccc(CC#N)c4)cc3n1)CNCC2 [Compound 1-55, (3-{2-[(6-methoxy-1,2,3,4-tetrahydroisoquinolin-7-yl)amino]quinazolin-7-yl}phenyl)acetonitrile] | 52.8
8 | COc1cc2c(cc1Nc1ncc3ccc(-c4cccc(-c5cn[nH]c5)c4)cc3n1)CNCC2 [Compound 1-56, N-(6-methoxy-1,2,3,4-tetrahydroisoquinolin-7-yl)-7-[3-(1H-pyrazol-4-yl)phenyl]quinazolin-2-amine] | 204
9 | COc1cc2c(cc1Nc1ncc3ccc(-c4cnc5c(C#N)cnn5c4)cc3n1)CN(C)CC2 [Compound 1-22, 6-{2-[(6-methoxy-2-methyl-1,2,3,4-tetrahydroisoquinolin-7-yl)amino]quinazolin-7-yl}pyrazolo[1,5-a]pyrimidine-3-carbonitrile] | 735
10 | COc1cncc(-c2ccc3cnc(Nc4cc5c(cc4OC)CCNC5)nc3c2)c1 [Compound 1-44, 7-(5-methoxypyridin-3-yl)-N-(6-methoxy-1,2,3,4-tetrahydroisoquinolin-7-yl)quinazolin-2-amine] | 9.45
11 | Cc1c(-c2cc3nc(Nc4ccc(CC(N)=O)cc4)ncc3cc2F)cnc2c1NCCO2 [Compound 1-131, 2-(4-{[6-fluoro-7-(8-methyl-2,3-dihydro-1H-pyrido[2,3-b][1,4]oxazin-7-yl)quinazolin-2-yl]amino}phenyl)acetamide] | 0.165
12 | COc1cc2c(cc1Nc1ncc3ccc(-c4ccccc4C4CC4)cc3n1)CNCC2 [Compound 1-92, 7-(2-cyclopropylphenyl)-N-(6-methoxy-1,2,3,4-tetrahydroisoquinolin-7-yl)quinazolin-2-amine] | 92.4
13 | COc1cc2c(cc1Nc1ncc3ccc(-c4cccc(S(=O)(=O)N5CCCCC5)c4)cc3n1)CNCC2 [Compound 1-82, N-(6-methoxy-1,2,3,4-tetrahydroisoquinolin-7-yl)-7-{3-[(piperidin-1-yl)sulfonyl]phenyl}quinazo-line-2-amine] | 15.2
14 | CNC(=O)C1(c2ccc(Nc3ncc4cc(F)c(-c5cnc6c(c5C)NCCO6)cc4n3)cc2)CCC1 [Compound 1-121, 1-(4-{[6-fluoro-7-(8-methyl-2,3-dihydro-1H-pyrido[2,3-b][1,4]oxazin-7-yl)quinazolin-2-yl]amino}phenyl)-N-methylcyclobutane-1-carboxamide] | 0.256
15 | COc1cc2c(cc1Nc1ncc3ccc(-c4cncc(N)c4C)cc3n1)CN(C)CC2 [Compound 1-3, 7-(5-amino-4-methylpyridin-3-yl)-N-(6-methoxy-2-methyl-1,2,3,4-tetrahydroisoquinolin-7-yl)quinazolin-2-amine] | 1.52

Continued, values first:

Row | IC50 [nM] | Structure (SMILES)
16 | 0.0392 | Cc1c(-c2cc3nc(Nc4ccc([S+](C)[O-])cc4)ncc3c(N)c2F)cnc2c1NCCO2 (stereo not drawn) [Compound 2-170, 6-fluoro-7-(8-methyl-2,3-dihydro-1H-pyrido[2,3-b][1,4]oxazin-7-yl)-N~2~- [4-(methylsulfinyl)phenyl] quinazoline-2,5-diamine]
17 | 0.0612 | Cc1c(-c2cc3nc(Nc4ccc(C(C)S(C)(=O)=O)cc4)ncc3c(N)c2F)cnc2c1NCCO2 (single isomer, unassigned) [Compound 2-62, (R or S)-6-fluoro-7-(8-methyl-2,3-dihydro-1H-pyrido[2,3-b][1,4]oxazin-7-yl)-N˜2˜-{4-[1-(methylsulfonyl)ethyl]phenyl}quinazoline-2,5-diamine]
18 | 46.3 | COc1cc2c(cc1Nc1ncc3ccc(Nc4ccc5c(c4)C(=O)N(C)C5)cc3n1)CN(C)CC2 [Compound 3-23, 6-({2-[(6-methoxy-2-methyl-1,2,3,4-tetrahydroisoquinolin-7-yl)amino]quinazolin-7-yl}-amino)-2-methyl-2,3-dihydro-1H-isoindol-1-one]
19 | 0.273 | CC(=O)N1CCCC1c1ccc(Nc2ncc3c(N)c(F)c(-c4cnc5c(c4C)NCCO5)cc3n2)cc1 (single isomer, unassigned) [Compound 2-29, (R or S)-1-[2-(4-{[5-amino-6-fluoro-7-(8-methyl-2,3-dihydro-1H-pyrido[2,3-b][1,4]oxazin-7-yl)quinazolin-2-yl]amino}phenyl)pyrrolidin-1-yl]ethan-1-one]
20 | 0.0406 | Cc1c(-c2cc3nc(Nc4ccc5c(c4)CN(C)CCC5)ncc3c(N)c2F)cnc2c1NCCO2 [Compound 2-117, 6-fluoro-7-(8-methyl-2,3-dihydro-1H-pyrido[2,3-b][1,4]oxazin-7-yl)-N~2~- (2-methyl-2,3,4,5-tetrahydro-1H-2-benzazepin-8-yl)quinazoline-2,5-diamine]
21 | 0.117 | COc1ncccc1Nc1ncc2c(N)c(F)c(-c3cnc4c(c3C)NCCO4)cc2n1 [Compound 2-27, 6-fluoro-N~2~-(2-methoxypyridin-3-yl)-7-(8-methyl-2,3-dihydro-1H-pyrido[2,3-b][1,4]oxazin-7-yl)quinazoline-2,5-diamine]
22 | 0.0714 | CN1Cc2cc(Nc3ncc4c(N)c(F)c(-c5cnc6c(c5Cl)NCCO6)cc4n3)ccc2C2(CC2)C1 [Compound 2-152, 7-(8-chloro-2,3-dihydro-1H-pyrido[2,3-b][1,4]oxazin-7-yl)-6-fluoro-N~2~-(2′-methyl-2′,3′-dihydro-1′H-spiro[cyclopropane-1,4′-isoquinolin]-7′-yl)quinazoline-2,5-diamine]
23 | 0.942 | COc1cc2c(cc1Nc1ncc3c(N)cc(-c4cncc(N)c4C)cc3n1)CN(C)CC2 [Compound 2-39, 7-(5-amino-4-methylpyridin-3-yl)-N~2~- (6-methoxy-2-methyl-1,2,3,4-tetrahydroisoquinolin-7-yl)quinazoline-2,5-diamine]
24 | 47 | Cc1c(-c2c(F)c(N)c3cnc(Nc4ccc(N5CCOC5=O)cc4)nc3c2Cl)cnc2c1NCCO2 [Compound 2-159]
25 | 638 | COc1cc2c(cc1Nc1ncc3ccc(-n4nc(C)nc4C4CCCN4)cc3n1)CN(C)CC2 (racemic) [Compound 3-19, (S and R)-N-(6-methoxy-2-meth-yl-1,2,3,4-tetrahydroisoquinolin-7-yl)-7-[3-methyl-5-(pyrrolidin-2-yl)-1H-1,2,4-triazol-1-yl]quin-azolin-2-amine]
26 | 18.4 | COc1cc2c(cc1Nc1ncc3ccc(Nc4cccc(S(C)(=O)=O)c4)cc3n1)CN(C)CC2 [Compound 3-33, N~2~-(6-methoxy-2-methyl-1,2,3,4-tetrahydroisoquinolin-7-yl)-N~7~-[3-(methylsulfon-yl)phenyl]quinazoline-2,7-diamine]
27 | 0.0328 | Cc1c(-c2cc3nc(Nc4ccc5c(c4)CN(C)C(C)C5)ncc3c(N)c2F)cnc2c1NCCO2 (single isomer, unassigned) [Compound 2-85, (R or S)—N2-(2,3-dimethyl-1,2,3,4-tetrahydroisoquinolin-7-yl)-6-fluoro-7-(8-methyl-2,3-dihydro-1H-pyrido[2,3-b][1,4]oxazin-7-yl)quinazoline-2,5-diamine]
28 | 0.153 | Cc1c(-c2cc3nc(Nc4ccc5c(c4)CN(CC(C)(C)O)C5=O)ncc3c(N)c2F)cnc2c1NCCO2 [Compound 2-42, 5-{[5-amino-6-fluoro-7-(8-methyl-2,3-dihydro-1H-pyrido[2,3-b][1,4]oxazin-7-yl)quinazolin-2-yl]amino}-2-(2-hydroxy-2-methylpropyl)-2,3-dihydro-1H-isoindol-1-one]
29 | 685 | COc1cc2c(cc1Nc1ncc3c(N)c(F)c(-c4cnc5c(c4C)NCCO5)cc3n1)CN(C(C)=O)CC2 [Compound 2-12, 1-[7-{[5-amino-6-fluoro-7-(8-methyl-2,3-dihydro-1H-pyrido[2,3-b][1,4]oxazin-7-yl)quinazolin-2-yl]amino}-6-methoxy-3,4-dihydroisoquinolin-2(1H)-yl]ethan-1-one]
30 | 11.5 | Cc1c(-c2cc3nc(Nc4ccccc4C4CC4)ncc3c(N)c2F)cnc2c1NCCO2 [Compound 2-26, N~2~-(2-cyclopropylphenyl)-6-fluoro-7-(8-methyl-2,3-dihydro-1H-pyrido[2,3-b][1,4]oxazin-7-yl)quinazoline-2,5-diamine]
